Counter-ions that a name gives are not always drawn.
How the values were obtained:
[1] = conversion test to the parent drug (alprenolol) in buffer solution having the pH of 7.4; type: physicochemical; details: hydrochloride, Britton-Robinson buffer pH 7.4, 37° C.; for half-life: read-out: Half-life time (T 1/2) (converted); for 50% producing time of the parent drug (T' 1/2): unit assumed
Method: Assuming the absorption and distribution of the derivatives in vivo, conversion tests to the parent drug (alprenolol) were carried out by the following method in buffer solutions having the pH of 2, 4 and 7.4.
Britton-Robinson buffer solutions having the pH of 2, 4 and 7.4 were prepared. To each 800 μl of the buffer solution, 200 μl of an aqueous solution of each compound which had been adjusted to a concentration of 2 mg/ml were added. The resulting mixture was incubated at 37° C.
From each reaction mixture, 100 μl of sample were collected after 0, 1, 3, 5, 7 and 24 hours, diluted with a developer and subjected to high performance liquid chromatography (abbreviated as HPLC) under following conditions.
(d) Conditions of HPLC in the conversion test;
(d) Conditions of HPLC in the above conversion test;
As to the compounds (hydrochloride) described in the above (1)-(4), the conversion rate to the parent drug was examined in a buffer solution having the pH of 7.4 assuming blood pH. Table 1 illustrates half-life time (T 1/2) of each compound in the above buffer solution and 50% producing time (T' 1/2) of the parent drug in the same buffer solution.

[2] = oral administration to dogs, plasma levels of the parent drug and AUC (improving effect on bioavailability); type: in vivo, Female beagle dogs; details: beagle dogs; for relationship between dose and AUC (area under the plasma concentration curve) (FIG. 14): alprenolol hydrochloride 2-30 mg/kg, hydrochlorides of (1) and (2) equivalent to 10 and 20 mg/kg; for plasma concentration of the parent drug (FIG. 13): hydrochlorides, dose equivalent to 20 mg/kg of alprenolol hydrochloride, 0.5-6 hours, versus alprenolol hydrochloride
Method: In the next step, the alprenolol drivative of this invention was orally administered to dogs as experimental animals. The results described below were obtained by investigating the improving effect on bioavailability. Female beagle dogs (a body weight of about 10 kg) were used as the experimental animals. The 12 dogs were divided into 2 groups of 6 dogs and each group was alternately subjected to the experiment with intervals of 2 weeks. To the dogs, 2, 5, 10, 20 and 30 mg/kg of alprenolol hydrochloride 13.50 and 27.00 mg/kg of the compound (1) hydrochloride, (equivalent to 10, 20 mg/kg of the alprenolol hydrochloride, respectively) and 13.99 and 27.98 mg/kg of the compound (2) hydrochloride (equivalent to 10 and 20 mg/kg of alprenolol hydrochloride, respectively) were orally administered. Blood was collected respectively after 0.5, 1, 2, 4 and 6 hours. The plasma separated from the blood was extracted with ethanol. Plasma levels of the parent drug were determined by HPLC. The conditions for the HPLC analysis are shown as follows: |Column ODS 4.6.phi. × 250 mm |Flow rate 0.8 ml/min |Eluent CH3 CN:CH3 OH:50 mM KH2 PO4

[3] = cited from earlier work

SMILES	half-life [1] [h]	50% producing time of the parent drug (T' 1/2) [1] [h]	relationship between dose and AUC (area under the plasma concentration curve) (FIG. 14) [2]	plasma concentration of the parent drug (FIG. 13) [2]	bioavailability of alprenolol in the oral administration [3] [%]
C=CCc1ccccc1OCC(CNC(C)C)OC(=O)CCC(=O)O (centres unmarked) [(1), Butanedioic acid mono[1-{(2-allylphenoxy)methyl}{2-(1-methylethyl)amino}ethyl]ester]	7.4	5	linear relationships	significantly high plasma concentration of the parent drug	–
C=CCc1ccccc1OCC(O)CNC(C)C (centres unmarked) [alprenolol hydrochloride, reference compound]	–	–	non-linear relationship with the threshold due to the first-pass effect	–	–
C=CCc1ccccc1OCC(O)CNC(C)C (centres unmarked) [alprenolol]	–	–	–	–	15

Continued, in another order:

half-life [1] [h]	50% producing time of the parent drug (T' 1/2) [1] [h]	relationship between dose and AUC (area under the plasma concentration curve) (FIG. 14) [2]	SMILES	plasma concentration of the parent drug (FIG. 13) [2]	bioavailability of alprenolol in the oral administration [3] [%]
4.9	5	linear relationships	C=CCc1ccccc1OCC(CNC(C)C)OC(=O)CCCC(=O)O (centres unmarked) [(2), pentanedioic acid mono[1-{(2-allylphenoxy)methyl}-{2-(1-methylethyl)amino}ethyl]ester hydrochloride]	significantly high plasma concentration of the parent drug	–
1.3	2	–	C=CCc1ccccc1OCC(CNC(C)C)OC(=O)CCCC(=O)OCC (centres unmarked) [(3), 4-Ethoxycarbonylbutanoic acid mono[1-{(2-allylphenoxy)methyl}-{2-(1-methylethyl)amino}ethyl]ester]	–	–
0.9	3	–	C=CCc1ccccc1OCC(CNC(C)C)OC(=O)/C=C\C(=O)O (centres unmarked) [(4), (z)-Butenedioic acid mono[1-{(2-allylphenoxy)methyl}-{2-(1-methylethyl)amino}ethyl]ester]	–	–
